In EPA's ToxRefDB 2:

Assays:
mouse [1] = conditions: Prenatal developmental toxicity study, cd1, Oral, Gavage/Intubation, dose end: 17 GD
mouse [2] = conditions: Prenatal developmental toxicity study, cd1, Oral, Gavage/Intubation, dose end: 17 GD; remark: listed apart in the source
rat [3] = conditions: Combined chronic toxicity/carcinogenicity, fischer, Oral, Feed, dose end: 2 year
rabbit = conditions: Prenatal developmental toxicity study, new zealand white, Oral, Gavage/Intubation, dose end: 18 GD
rat [4] = conditions: Prenatal developmental toxicity study, sprague dawley, Oral, Gavage/Intubation, dose end: 16 GD
rat [5] = conditions: Multigenerational reproductive toxicity study, sprague dawley, Oral, Feed, dose end: 2 generation
rat [6] = conditions: Multigenerational reproductive toxicity study, sprague dawley, Oral, Feed, dose end: 2 generation; remark: listed apart in the source
rat [7] = conditions: Prenatal developmental toxicity study, sprague dawley, Oral, Gavage/Intubation, dose end: 15 GD
[8] = group: developmental, developmental / developmental malformation / bone / supernumerary + systemic / in life observation / body weight / fetal weight
[9] = group: maternal, systemic / in life observation / body weight / body weight + systemic / in life observation / body weight / body weight gain + systemic / …
[10] = group: developmental, systemic / in life observation / body weight / fetal weight
[11] = group: maternal, reproductive / reproductive performance / postimplantation loss / postimplantation loss + systemic / in life observation / body weight / …
[12] = group: cholinesterase, cholinesterase / cholinesterase / cholinesterase / erythrocyte cholinesterase (che)
[13] = group: systemic, systemic / pathology microscopic / stomach / mineralization + systemic / in life observation / body weight / body weight + systemic / in …
[14] = group: developmental, developmental / developmental malformation / bone / absent + developmental / developmental malformation / bone / full supernumerary
[15] = group: maternal, reproductive / reproductive performance / resorptions / resorptions + systemic / in life observation / body weight / body weight gain + …
[16] = group: maternal, systemic / in life observation / clinical signs / respiration (dyspnea)
[17] = group: maternal, systemic / in life observation / food consumption / food consumption
[18] = group: maternal, systemic / in life observation / food consumption / food consumption + systemic / in life observation / body weight / body weight
[19] = group: offspring, systemic / organ weight / kidney / absolute + systemic / organ weight / liver / absolute + systemic / pathology gross / kidney / enlarged + …
[20] = group: parental, systemic / organ weight / liver / absolute + systemic / organ weight / kidney / absolute
[21] = group: reproductive, reproductive / offspring survival early / birth index / live birth index
[22] = group: offspring, developmental / offspring survival late / viability index / viability index + developmental / developmental landmark / anogenital distance (…
[23] = group: offspring, systemic / organ weight / kidney / absolute + systemic / organ weight / liver / absolute + systemic / pathology microscopic / liver / …
[24] = group: parental, systemic / in life observation / body weight / body weight + systemic / organ weight / kidney / absolute + systemic / organ weight / liver…
[25] = group: parental, systemic / organ weight / liver / absolute + systemic / pathology microscopic / liver / hypertrophy + systemic / organ weight / kidney / …
[26] = group: developmental, developmental / developmental malformation / bone / incomplete ossification + developmental / developmental malformation / bone / …
[27] = group: maternal, systemic / in life observation / body weight / body weight gain + systemic / in life observation / food consumption / food consumption

C=CC(=O)NCNC(=O)C=C [N,N'-Methylenebisacrylamide]
LEL (mouse [1]; group: developmental, developmental / developmental malformation / bone / supernumerary): 10 mg/kg/day
LOAEL (mouse [1]; [8]): > 30 mg/kg/day
NEL (mouse [1]; [8]): 3 mg/kg/day
NOAEL (mouse [1]; [8]): ≥ 30 mg/kg/day
LOAEL (mouse [1]; [9]): > 30 mg/kg/day
NEL (mouse [1]; [9]): 3 mg/kg/day
NOAEL (mouse [1]; [9]): ≥ 30 mg/kg/day
LEL (mouse [1]; group: maternal, systemic / in life observation / body weight / body weight + systemic / organ weight / liver / relative to body weight + systemic / organ …): 10 mg/kg/day

C=C(C)C(N)=O [Methacrylamide]
LEL (mouse [2]; [10]): 120 mg/kg/day
LOAEL (mouse [2]; [10]): > 180 mg/kg/day
NEL (mouse [2]; [10]): 60 mg/kg/day
NOAEL (mouse [2]; [10]): ≥ 180 mg/kg/day
LOAEL (mouse [2]; [11]): > 180 mg/kg/day
NEL (mouse [2]; [11]): 60 mg/kg/day
NOAEL (mouse [2]; [11]): ≥ 180 mg/kg/day
LEL (mouse [2]; group: maternal, systemic / organ weight / liver / relative to body weight): 120 mg/kg/day

CCOC(=O)CC(SP(=O)(OC)OC)C(=O)OCC (configuration not stated) [Malaoxon]
LEL (rat [3]; [12]): 1 mg/kg/day
LOAEL (rat [3]; [12]): 1 mg/kg/day
NEL (rat [3]; [12]): < 1 mg/kg/day
NOAEL (rat [3]; [12]): < 1 mg/kg/day
LOAEL (rat [3]; group: systemic, systemic / pathology microscopic / stomach / mineralization): 57 mg/kg/day
NEL (rat [3]; [13]): 1 mg/kg/day
NOAEL (rat [3]; [13]): 1 mg/kg/day
LEL (rat [3]; group: systemic, systemic / pathology microscopic / stomach / mineralization + systemic / in life observation / food consumption / food consumption): 57 mg/kg/day

C=CCOC(Cn1ccnc1)c1ccc(Cl)cc1Cl.O=S(=O)(O)O (configuration not stated) [Imazalil sulfate]
LEL (rabbit; [14]): 20 mg/kg/day
LOAEL (rabbit; [14]): > 20 mg/kg/day
NEL (rabbit; [14]): 10 mg/kg/day
NOAEL (rabbit; [14]): ≥ 20 mg/kg/day
LOAEL (rabbit; [15]): 10 mg/kg/day
NOAEL (rabbit; [15]): 5 mg/kg/day
LEL (rabbit; [16]): 5 mg/kg/day
NEL (rabbit; [16]): < 5 mg/kg/day
LEL (rat [4]; [10]): 80 mg/kg/day
LOAEL (rat [4]; [10]): 80 mg/kg/day
NEL (rat [4]; [10]): 40 mg/kg/day
NOAEL (rat [4]; [10]): 40 mg/kg/day
LOAEL (rat [4]; [17]): 40 mg/kg/day
NOAEL (rat [4]; [17]): < 40 mg/kg/day
LEL (rat [4]; [18]): 40 mg/kg/day
NEL (rat [4]; [18]): < 40 mg/kg/day

CC(C)CCCCCCCOC(=O)c1ccccc1C(=O)OCCCCCCCC(C)C [Diisodecyl phthalate]
LEL (rat [5]; [19]): 100 mg/kg/day
LOAEL (rat [5]; [19]): > 200 mg/kg/day
NEL (rat [5]; [19]): 30 mg/kg/day
NOAEL (rat [5]; [19]): ≥ 200 mg/kg/day
NEL (rat [5]; group: parental, systemic / organ weight / liver / absolute): 100 mg/kg/day
LEL (rat [5]; [20]): 200 mg/kg/day
LOAEL (rat [5]; [20]): > 200 mg/kg/day
NOAEL (rat [5]; [20]): ≥ 200 mg/kg/day
LEL (rat [5]; [21]): 100 mg/kg/day
LOAEL (rat [5]; [21]): > 200 mg/kg/day
NEL (rat [5]; [21]): 30 mg/kg/day
NOAEL (rat [5]; [21]): ≥ 200 mg/kg/day
LOAEL (rat [6]; [22]): > 400 mg/kg/day
NOAEL (rat [6]; [22]): ≥ 400 mg/kg/day
LEL (rat [6]; [23]): 100 mg/kg/day
NEL (rat [6]; [23]): < 100 mg/kg/day
LOAEL (rat [6]; [24]): > 400 mg/kg/day
NOAEL (rat [6]; [24]): ≥ 400 mg/kg/day
LEL (rat [6]; [25]): 100 mg/kg/day
NEL (rat [6]; [25]): < 100 mg/kg/day
LEL (rat [6]; [21]): 100 mg/kg/day
LOAEL (rat [6]; [21]): > 400 mg/kg/day
NEL (rat [6]; [21]): < 100 mg/kg/day
NOAEL (rat [6]; [21]): ≥ 400 mg/kg/day
LEL (rat [7]; [26]): 1000 mg/kg/day
LOAEL (rat [7]; [26]): > 1000 mg/kg/day
NEL (rat [7]; [26]): 500 mg/kg/day
NOAEL (rat [7]; [26]): ≥ 1000 mg/kg/day
LEL (rat [7]; [27]): 1000 mg/kg/day
LOAEL (rat [7]; [27]): > 1000 mg/kg/day
NEL (rat [7]; [27]): 500 mg/kg/day
NOAEL (rat [7]; [27]): ≥ 1000 mg/kg/day
